Results reported in patent US11234960B2, “Compositions and methods for improving mitochondrial function and treating neurodegenerative diseases and cognitive disorders” (Amazentis SA, priority 2010, dated 2022).

What was measured:
[1] = tested on: C57BL6/J mice fed standard chow diet; test: Indirect calorimetry (CLAMS) in standard chow diet fed mice; assay type: in vivo; settings: for respiratory exchange ratio (RER): chow diet fed mice (FIGS. 21A, 21B); for energy expenditure (oxygen consumption, VO2): standard chow-fed mice, 2 weeks of treatment (FIGS. 19A, 19B)
Experimental: Mice in different treatment groups were administered (i) urolithin A mixed with food (food admix) to reach a dosing of 55 mg/kg body weight/day (mkd); (ii) ellagic acid mixed with food (food admix) to reach a dosing of 75 mkd; (iii) punicalagin (gavage) to reach a dosing of 90 mkd; or (iv) pomegranate extract (PE) (gavage) to reach a dosing of 140 mkd of total polyphenols. A typical pomegranate extract used in these experiments had the following composition: polyphenols, 140 mkd; punicalagin, 13.1 mkd; and ellagic acid, 13.2 mkd. For animals treated by gavage, gavage was performed daily (7 days/week) between 8:00 and 10:00 a.m.; compounds were mixed with saline solution (0.9% NaCl) and provided at a final volume of 5 mL/kg of body weight. Mice in high-fat control groups were fed with the same diet as the experimental animals. Mice in corresponding different control groups were administered either high-fat diet alone or high-fat diet plus daily gavage with vehicle (saline). Another control group of mice were fed standard chow diet alone.
Male C57BL6/J mice were grouped and treated as described in Example 7. In addition, however, basal energy expenditure of mice was measured by indirect calorimetry oxygen consumption, carbon dioxide production, and respiratory exchange ratio), 8 weeks after the initiation of treatment for the HFD-fed mice and 2 weeks after the initiation of treatment for standard show diet-fed mice, using the Comprehensive Laboratory Animal Monitoring System (CLAMS; Columbus Instruments, Columbus, Ohio, USA). Animals were first acclimatized for 22 h to CLAMS cages (room temperature 22° C.±1° C.) starting between 11 to 12 am. Then measurement was performed for at least 20 h in the same condition. Measurement included an entire dark cycle. Parameters measured during CLAMS were the following: (i) Oxygen consumption (VO2 in mL/kg/h): VO2 is directly correlated to energy expenditure; (ii) Carbon dioxide production (VCO2 in mL/kg/h); and (iii) Respiratory Exchange Ratio (RER): VCO2/VO2: RER is an indicator of the use of energy substrate. In a steady state, RER is equivalent to the Respiratory Quotient (RQ). Pure carbohydrate use gives RER=1, whereas pure fat burning yields an RER=0.7. A mixed diet gives a RER=0.85.
As stated above, in addition to oxygen consumption, indirect calorimetry also monitors carbon dioxide production. The ratio between carbon dioxide production (VCO2) and oxygen consumption (VO2) is called Respiratory Exchange Ratio (RER). RER is an excellent indicator of the use of energy substrates. In a steady state, RER is equivalent to the Respiratory Quotient (RQ). […]

[2] = tested on: C2C12 myotubes (PGC-1α, Tfam, PFKFB3, CPT1b, MCAD, LCAD, Ndufa2, Cyt c, Mfn2); test: Mitochondrial gene expression by real time quantitative PCR in C2C12 myotubes; assay type: cell-based; settings: 48 hr, 1, 10 or 50 μM, vs DMSO control (FIG. 3)
Experimental: To assess the effects of compounds on mitochondrial gene expression, C2C12 myoblasts were differentiated into myotubes by serum deprivation for 4 days (Cantó et al. (2009) Nature. 458:1056-60). Myotubes were incubated for 48 hr with ellagic acid or urolithin A at a final concentration of 1, 10 or 50 μM (all dissolved in DMSO, final concentration 0.1%). DMSO was used as a control (final concentration 0.1%). At the end of the treatment, cells were washed with phosphate buffered saline (PBS) and mRNA were immediately extracted according to manufacturer's instructions (Trizol Reagent, Invitrogen) by adding 1 mL of Trizol reagent. After extraction, cDNA were produced by reverse transcription according to manufacturer's instructions.
Assessment of the expression levels of genes (PGC-1α, Tfam, PFKFB3, CPT1b, MCAD, LCAD, Ndufa2, Cyt c, and Mfn2) which control the mitochondrial function was performed by real time quantitative PCR (Watanabe et al. (2004) J Clin Invest. 113:1408-18) by using the following set of primers (Fwd: forward primer; Rev: reverse primer): […]
PGC-1α (PPARγ-coregulator 1α) and Tfam (mitochondrial transcription factor A) are master regulators of the mitochondrial function, namely of mitochondrial biogenesis and mitochondrial phosphorylative oxidation (mOXPHOS). […]

SMILES	respiratory exchange ratio (RER) [1]	energy expenditure (oxygen consumption, VO2) [1]	mitochondrial activity by expression of mitochondrial genes [2]
O=c1oc2c(O)c(O)cc3c(=O)oc4c(O)c(O)cc1c4c23 [ellagic acid]	significantly decreased RER	increased energy expenditure	increase mitochondrial activity in a dose-dependent manner
O=c1oc2cc(O)ccc2c2ccc(O)cc12 [urolithin A, 3,8-Dihydroxydibenzo-α-pyrone]	significantly decreased RER	increased energy expenditure	increase mitochondrial activity in a dose-dependent manner
